Test results: ChEMBL document CHEMBL5291721, “A preclinical secondary pharmacology resource illuminates target-adverse drug reaction associations of marketed drugs” (Nat Commun, 2023)

Key:
Histamine H2 receptor = Histamine H2 receptor (Homo sapiens, UniProt P25021); assay type: functional, cell-based
[1] = biological target: T1, Gastrin/cholecystokinin type B receptor (Homo sapiens, UniProt P32239)
T1 sequence (P32239 whole entry): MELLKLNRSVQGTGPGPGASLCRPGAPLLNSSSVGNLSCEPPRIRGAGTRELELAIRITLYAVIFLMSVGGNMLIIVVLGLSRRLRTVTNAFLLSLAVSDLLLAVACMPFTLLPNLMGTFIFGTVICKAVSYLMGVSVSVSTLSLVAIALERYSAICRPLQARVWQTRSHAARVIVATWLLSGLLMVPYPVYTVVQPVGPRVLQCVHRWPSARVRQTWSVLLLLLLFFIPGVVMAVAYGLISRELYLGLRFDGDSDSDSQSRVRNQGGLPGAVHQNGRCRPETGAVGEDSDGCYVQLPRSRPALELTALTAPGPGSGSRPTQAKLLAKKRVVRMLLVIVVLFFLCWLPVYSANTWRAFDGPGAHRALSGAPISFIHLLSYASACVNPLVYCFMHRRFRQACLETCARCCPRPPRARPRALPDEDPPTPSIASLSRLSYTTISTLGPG

[2] = biological target: Delta-type opioid receptor (Homo sapiens, UniProt P41143)
Delta-type opioid receptor, sequence (P41143 whole entry): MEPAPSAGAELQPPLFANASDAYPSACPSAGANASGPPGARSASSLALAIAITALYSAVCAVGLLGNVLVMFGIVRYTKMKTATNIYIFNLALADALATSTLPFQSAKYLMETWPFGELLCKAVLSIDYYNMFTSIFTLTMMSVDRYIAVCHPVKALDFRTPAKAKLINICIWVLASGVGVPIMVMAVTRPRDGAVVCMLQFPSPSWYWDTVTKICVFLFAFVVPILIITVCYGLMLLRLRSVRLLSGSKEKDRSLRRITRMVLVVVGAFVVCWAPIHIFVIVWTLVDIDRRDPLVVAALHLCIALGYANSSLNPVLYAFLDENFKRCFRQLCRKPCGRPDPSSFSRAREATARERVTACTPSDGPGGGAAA

[3] = biological target: Sodium-dependent noradrenaline transporter (Homo sapiens, UniProt P23975)
[4] = biological target: Voltage-gated inwardly rectifying potassium channel KCNH2 (Homo sapiens, UniProt Q12809); assay type: functional; conditions: read-out: AC50
Voltage-gated inwardly rectifying potassium channel KCNH2, sequence (Q12809 whole entry): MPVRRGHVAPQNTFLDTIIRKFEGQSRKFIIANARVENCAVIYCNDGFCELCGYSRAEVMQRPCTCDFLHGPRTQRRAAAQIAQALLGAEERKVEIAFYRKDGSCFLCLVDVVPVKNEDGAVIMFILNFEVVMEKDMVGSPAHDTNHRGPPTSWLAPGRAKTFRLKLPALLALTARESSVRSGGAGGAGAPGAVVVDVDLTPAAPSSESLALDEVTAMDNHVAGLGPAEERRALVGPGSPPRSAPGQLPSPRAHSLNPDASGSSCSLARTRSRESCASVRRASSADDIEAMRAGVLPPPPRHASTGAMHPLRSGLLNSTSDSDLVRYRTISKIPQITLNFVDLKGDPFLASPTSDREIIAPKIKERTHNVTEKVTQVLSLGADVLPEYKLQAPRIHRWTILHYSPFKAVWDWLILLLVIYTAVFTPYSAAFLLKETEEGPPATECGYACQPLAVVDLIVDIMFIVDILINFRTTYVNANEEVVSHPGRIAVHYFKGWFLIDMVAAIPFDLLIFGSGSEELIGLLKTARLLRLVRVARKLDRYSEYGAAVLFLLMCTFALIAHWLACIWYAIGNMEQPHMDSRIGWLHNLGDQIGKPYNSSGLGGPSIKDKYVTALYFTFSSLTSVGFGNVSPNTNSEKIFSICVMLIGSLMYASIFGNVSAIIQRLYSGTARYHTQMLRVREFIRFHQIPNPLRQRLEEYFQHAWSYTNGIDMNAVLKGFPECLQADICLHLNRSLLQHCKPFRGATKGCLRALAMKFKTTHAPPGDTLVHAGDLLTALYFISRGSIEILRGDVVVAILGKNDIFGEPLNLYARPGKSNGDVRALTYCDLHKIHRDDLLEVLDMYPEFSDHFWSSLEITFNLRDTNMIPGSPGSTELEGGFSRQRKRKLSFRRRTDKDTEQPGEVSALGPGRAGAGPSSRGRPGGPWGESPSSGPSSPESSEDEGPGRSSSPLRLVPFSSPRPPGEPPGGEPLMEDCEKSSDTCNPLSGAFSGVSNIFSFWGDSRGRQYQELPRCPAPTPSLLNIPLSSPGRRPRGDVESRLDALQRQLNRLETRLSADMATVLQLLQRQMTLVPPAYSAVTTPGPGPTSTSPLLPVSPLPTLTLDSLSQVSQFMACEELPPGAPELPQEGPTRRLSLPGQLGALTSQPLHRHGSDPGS

[5] = biological target: T2, 5-hydroxytryptamine receptor 2C (Homo sapiens, UniProt P28335)
T2 sequence (P28335 whole entry): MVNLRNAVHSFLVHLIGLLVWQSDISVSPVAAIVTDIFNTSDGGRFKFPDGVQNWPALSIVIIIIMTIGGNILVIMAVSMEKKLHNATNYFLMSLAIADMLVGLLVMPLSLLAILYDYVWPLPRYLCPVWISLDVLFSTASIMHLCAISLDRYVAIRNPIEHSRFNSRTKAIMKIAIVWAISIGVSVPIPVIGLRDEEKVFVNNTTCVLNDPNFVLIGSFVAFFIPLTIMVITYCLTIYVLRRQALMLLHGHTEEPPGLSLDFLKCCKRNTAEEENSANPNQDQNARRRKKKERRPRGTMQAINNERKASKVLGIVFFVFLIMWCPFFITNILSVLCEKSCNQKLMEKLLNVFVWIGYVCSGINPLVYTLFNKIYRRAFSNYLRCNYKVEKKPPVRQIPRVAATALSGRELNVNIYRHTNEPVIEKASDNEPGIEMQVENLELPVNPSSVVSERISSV

[6] = biological target: 3',5'-cyclic-AMP phosphodiesterase 4D (Homo sapiens, UniProt Q08499); assay type: functional
3',5'-cyclic-AMP phosphodiesterase 4D, sequence (Q08499 whole entry): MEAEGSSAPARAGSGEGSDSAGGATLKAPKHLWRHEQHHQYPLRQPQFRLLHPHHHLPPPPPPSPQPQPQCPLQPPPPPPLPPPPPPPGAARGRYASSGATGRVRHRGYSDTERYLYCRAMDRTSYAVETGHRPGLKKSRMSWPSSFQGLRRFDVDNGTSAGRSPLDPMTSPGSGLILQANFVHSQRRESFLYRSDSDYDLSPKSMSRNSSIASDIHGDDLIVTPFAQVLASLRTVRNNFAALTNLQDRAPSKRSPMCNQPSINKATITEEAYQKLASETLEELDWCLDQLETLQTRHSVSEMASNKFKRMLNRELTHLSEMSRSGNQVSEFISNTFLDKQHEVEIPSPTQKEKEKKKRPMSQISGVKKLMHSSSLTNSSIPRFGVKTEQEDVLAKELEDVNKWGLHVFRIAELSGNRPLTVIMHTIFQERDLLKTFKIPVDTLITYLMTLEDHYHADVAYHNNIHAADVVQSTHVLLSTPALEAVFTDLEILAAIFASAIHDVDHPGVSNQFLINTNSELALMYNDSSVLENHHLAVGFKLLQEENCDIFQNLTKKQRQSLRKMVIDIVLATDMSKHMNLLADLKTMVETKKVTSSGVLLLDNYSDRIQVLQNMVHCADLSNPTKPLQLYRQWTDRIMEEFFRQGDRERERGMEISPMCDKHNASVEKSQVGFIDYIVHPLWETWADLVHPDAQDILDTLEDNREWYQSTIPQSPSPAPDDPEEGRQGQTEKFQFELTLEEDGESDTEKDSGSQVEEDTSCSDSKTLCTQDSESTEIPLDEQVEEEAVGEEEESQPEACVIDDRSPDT

Melanocortin receptor 3 = Melanocortin receptor 3 (Homo sapiens, UniProt P41968)
Melanocortin receptor 3, sequence (P41968 whole entry): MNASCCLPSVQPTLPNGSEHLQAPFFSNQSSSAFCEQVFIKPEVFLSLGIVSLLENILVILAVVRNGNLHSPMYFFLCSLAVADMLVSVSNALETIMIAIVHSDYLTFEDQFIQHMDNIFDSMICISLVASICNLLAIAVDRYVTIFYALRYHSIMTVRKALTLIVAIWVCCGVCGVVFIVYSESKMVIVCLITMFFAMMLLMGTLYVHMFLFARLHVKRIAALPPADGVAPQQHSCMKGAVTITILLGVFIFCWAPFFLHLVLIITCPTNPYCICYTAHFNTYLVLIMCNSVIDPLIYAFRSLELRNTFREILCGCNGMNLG

Endothelin-1 receptor = biological target: T3, Endothelin-1 receptor (Homo sapiens, UniProt P25101)
T3 sequence (P25101 whole entry): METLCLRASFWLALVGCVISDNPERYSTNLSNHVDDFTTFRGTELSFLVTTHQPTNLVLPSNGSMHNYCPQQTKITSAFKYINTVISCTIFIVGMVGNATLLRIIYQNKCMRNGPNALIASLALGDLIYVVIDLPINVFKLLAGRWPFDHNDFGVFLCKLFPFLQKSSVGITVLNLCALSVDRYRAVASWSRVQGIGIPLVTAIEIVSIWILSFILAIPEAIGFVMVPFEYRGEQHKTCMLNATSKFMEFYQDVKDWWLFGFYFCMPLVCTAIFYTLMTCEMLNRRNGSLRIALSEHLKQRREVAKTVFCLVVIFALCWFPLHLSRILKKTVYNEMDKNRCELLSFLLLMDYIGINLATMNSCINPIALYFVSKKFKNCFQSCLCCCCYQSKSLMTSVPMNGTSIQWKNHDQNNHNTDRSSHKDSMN

Mu-type opioid receptor = Mu-type opioid receptor (Homo sapiens, UniProt P35372); assay: biochemical; assay type: functional
Mu-type opioid receptor, sequence (P35372 whole entry): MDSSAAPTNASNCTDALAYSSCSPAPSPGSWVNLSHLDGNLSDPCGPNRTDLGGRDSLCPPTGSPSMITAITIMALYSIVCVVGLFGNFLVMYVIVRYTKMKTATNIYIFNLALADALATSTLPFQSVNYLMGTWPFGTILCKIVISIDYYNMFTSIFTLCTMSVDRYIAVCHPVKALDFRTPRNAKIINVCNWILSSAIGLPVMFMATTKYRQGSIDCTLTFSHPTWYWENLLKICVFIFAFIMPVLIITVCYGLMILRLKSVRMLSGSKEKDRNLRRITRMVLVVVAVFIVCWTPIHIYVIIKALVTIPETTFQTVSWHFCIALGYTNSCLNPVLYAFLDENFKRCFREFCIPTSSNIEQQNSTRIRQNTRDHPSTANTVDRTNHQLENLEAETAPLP

Adenosine receptor A1 = biological target: T4, Adenosine receptor A1 (Homo sapiens, UniProt P30542)
T4 sequence (P30542 whole entry): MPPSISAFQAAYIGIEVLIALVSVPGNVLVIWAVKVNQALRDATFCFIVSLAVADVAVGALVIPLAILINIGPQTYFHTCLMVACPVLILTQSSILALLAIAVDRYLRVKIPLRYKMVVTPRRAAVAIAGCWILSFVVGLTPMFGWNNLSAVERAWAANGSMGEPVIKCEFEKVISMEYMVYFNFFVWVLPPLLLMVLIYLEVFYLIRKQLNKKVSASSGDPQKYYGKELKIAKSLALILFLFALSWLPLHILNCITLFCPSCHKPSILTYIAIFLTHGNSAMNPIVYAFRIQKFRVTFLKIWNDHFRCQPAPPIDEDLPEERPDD

Histamine H1 receptor = Histamine H1 receptor (Homo sapiens, UniProt P35367)
Histamine H1 receptor, sequence (P35367 whole entry): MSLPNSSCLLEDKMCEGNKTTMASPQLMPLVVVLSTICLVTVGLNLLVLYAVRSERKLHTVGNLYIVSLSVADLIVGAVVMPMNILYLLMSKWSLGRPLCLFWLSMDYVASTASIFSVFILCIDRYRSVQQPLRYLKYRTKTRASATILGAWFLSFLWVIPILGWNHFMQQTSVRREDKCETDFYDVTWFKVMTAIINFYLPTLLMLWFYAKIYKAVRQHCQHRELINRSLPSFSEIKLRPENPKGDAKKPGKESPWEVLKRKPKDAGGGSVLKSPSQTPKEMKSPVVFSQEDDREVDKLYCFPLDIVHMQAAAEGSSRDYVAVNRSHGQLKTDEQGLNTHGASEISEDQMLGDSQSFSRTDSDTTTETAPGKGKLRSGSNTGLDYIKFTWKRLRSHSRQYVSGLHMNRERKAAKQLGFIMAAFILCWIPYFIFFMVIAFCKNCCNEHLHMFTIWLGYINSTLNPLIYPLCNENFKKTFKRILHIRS

[7] = biological target: 5-hydroxytryptamine receptor 2A (Homo sapiens, UniProt P28223); assay type: functional, cell-based
5-hydroxytryptamine receptor 2A, sequence (P28223 whole entry): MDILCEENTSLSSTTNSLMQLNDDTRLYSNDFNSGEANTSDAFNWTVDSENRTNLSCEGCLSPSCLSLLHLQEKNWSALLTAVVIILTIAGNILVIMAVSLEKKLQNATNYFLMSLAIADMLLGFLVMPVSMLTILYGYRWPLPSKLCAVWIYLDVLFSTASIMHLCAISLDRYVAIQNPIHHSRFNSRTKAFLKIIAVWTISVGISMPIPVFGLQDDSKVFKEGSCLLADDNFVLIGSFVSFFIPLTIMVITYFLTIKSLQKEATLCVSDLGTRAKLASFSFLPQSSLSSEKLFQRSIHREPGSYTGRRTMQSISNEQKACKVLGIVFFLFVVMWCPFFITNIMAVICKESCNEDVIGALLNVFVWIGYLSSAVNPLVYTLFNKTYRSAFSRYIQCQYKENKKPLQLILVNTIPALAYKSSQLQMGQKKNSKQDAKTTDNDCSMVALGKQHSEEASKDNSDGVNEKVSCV

[8] = biological target: T5, Muscarinic acetylcholine receptor M1 (Homo sapiens, UniProt P11229); assay type: functional
T5 sequence (P11229 whole entry): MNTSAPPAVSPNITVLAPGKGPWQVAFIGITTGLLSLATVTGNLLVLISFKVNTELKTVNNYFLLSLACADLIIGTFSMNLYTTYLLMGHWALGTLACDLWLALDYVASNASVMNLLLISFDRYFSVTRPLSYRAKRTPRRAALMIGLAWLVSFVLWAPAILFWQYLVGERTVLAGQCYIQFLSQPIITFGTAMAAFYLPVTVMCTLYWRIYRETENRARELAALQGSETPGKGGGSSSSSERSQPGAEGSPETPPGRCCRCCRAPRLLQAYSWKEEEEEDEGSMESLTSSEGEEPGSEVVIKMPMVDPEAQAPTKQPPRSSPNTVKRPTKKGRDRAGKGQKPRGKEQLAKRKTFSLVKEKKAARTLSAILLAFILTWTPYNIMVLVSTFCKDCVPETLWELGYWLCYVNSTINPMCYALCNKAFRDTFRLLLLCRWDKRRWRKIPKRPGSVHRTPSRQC

[9] = biological target: Sodium-dependent serotonin transporter (Homo sapiens, UniProt P31645)
Vasopressin V1a receptor = Vasopressin V1a receptor (Homo sapiens, UniProt P37288)
Vasopressin V1a receptor, sequence (P37288 whole entry): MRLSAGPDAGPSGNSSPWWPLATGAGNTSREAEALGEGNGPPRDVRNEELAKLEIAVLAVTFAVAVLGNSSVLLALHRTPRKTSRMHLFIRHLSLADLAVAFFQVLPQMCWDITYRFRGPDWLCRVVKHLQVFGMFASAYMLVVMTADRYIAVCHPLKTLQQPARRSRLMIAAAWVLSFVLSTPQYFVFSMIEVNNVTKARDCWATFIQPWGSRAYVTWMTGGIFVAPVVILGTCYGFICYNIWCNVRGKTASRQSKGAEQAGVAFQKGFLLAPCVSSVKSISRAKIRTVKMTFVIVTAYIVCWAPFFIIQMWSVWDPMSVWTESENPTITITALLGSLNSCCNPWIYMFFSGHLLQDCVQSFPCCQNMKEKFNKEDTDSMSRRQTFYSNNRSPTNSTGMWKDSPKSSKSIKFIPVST
Also: assay procedure not described here.

Histamine H2 receptor, sequence (P25021 whole entry): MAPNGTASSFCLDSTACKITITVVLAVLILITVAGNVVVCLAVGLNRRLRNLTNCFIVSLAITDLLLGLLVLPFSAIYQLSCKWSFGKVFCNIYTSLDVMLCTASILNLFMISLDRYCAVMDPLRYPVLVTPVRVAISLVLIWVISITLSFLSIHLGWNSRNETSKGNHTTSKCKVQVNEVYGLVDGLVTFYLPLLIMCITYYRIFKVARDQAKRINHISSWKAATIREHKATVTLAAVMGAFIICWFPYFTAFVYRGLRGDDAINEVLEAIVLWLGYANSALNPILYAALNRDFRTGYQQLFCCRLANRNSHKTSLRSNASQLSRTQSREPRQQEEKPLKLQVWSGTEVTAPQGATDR

Row | Structure (SMILES) | AC50 (Histamine H2 receptor) [µM] | AC50 [1] [µM] | AC50 [2] [µM] | AC50 [3] [µM] | AC50 [4] [µM] | AC50 [5] [µM] | AC50 [6] [µM] | AC50 (Melanocortin receptor 3) [µM] | AC50 (Endothelin-1 receptor) [µM] | AC50 (Mu-type opioid receptor) [µM] | AC50 (Adenosine receptor A1) [µM] | AC50 (Histamine H1 receptor) [µM] | AC50 [7] [µM] | AC50 [8] [µM] | AC50 [9] [µM] | AC50 (Vasopressin V1a receptor) [µM]
1 | Brc1c(NC2=NCCN2)ccc2nccnc12 [BRIMONIDINE] | > 30 | > 30 | > 30 | > 30 | > 30 | > 30 | > 30 | > 30 | > 30 | > 30 | > 30 | – | – | – | – | –
2 | CC(CC1c2ccccc2CCc2ccccc21)CN(C)C (stereo not given) [BUTRIPTYLINE] | > 30 | – | – | – | 2.1 | 3 | > 30 | – | – | – | – | 0.015 | 15 | 0.23 | – | –
3 | CC(C)(C)NCC(O)COc1cccc2c1CCC(=O)N2 (stereo not given) [CARTEOLOL] | > 10 | – | > 30 | > 10 | > 30 | > 30 | > 30 | > 10 | – | – | > 10 | > 10 | > 10 | > 10 | > 10 | > 10
4 | Nc1nc(Cl)nc2c1ncn2[C@H]1C[C@H](O)[C@@H](CO)O1 [CLADRIBINE] | > 30 | > 30 | > 30 | > 30 | > 30 | > 30 | 0.97 | > 30 | > 30 | > 30 | > 30 | – | – | – | – | –
5 | Clc1ccccc1C(c1ccccc1)(c1ccccc1)n1ccnc1 [CLOTRIMAZOLE] | > 10 | – | > 30 | 19.9 | – | > 30 | – | – | – | – | – | – | – | – | – | –
6 | COc1ccc2c3c1O[C@H]1[C@@H](O)CC[C@H]4[C@@H](C2)N(C)CC[C@@]341 [DIHYDROCODEINE] | > 30 | – | > 30 | – | > 30 | > 10 | > 30 | – | – | – | – | > 30 | > 30 | > 30 | – | –
7 | NC(=O)OCC(COC(N)=O)c1ccccc1 [FELBAMATE] | > 10 | – | > 30 | > 10 | > 30 | > 30 | > 30 | > 10 | – | – | > 10 | > 10 | > 10 | > 10 | > 10 | > 10
8 | Cc1c(OCC(F)(F)F)ccnc1C[S+]([O-])c1nc2ccccc2[nH]1 (stereo not given) [LANSOPRAZOLE] | > 10 | 22 | 8.3 | > 10 | > 30 | > 10 | > 10 | > 30 | > 30 | 4.2 | 16.8 | – | – | – | – | > 10
9 | CO[C@]12C[C@@H](COC(=O)c3cncc(Br)c3)CN(C)[C@@H]1Cc1cn(C)c3cccc2c13 [NICERGOLINE] | – | – | – | – | 0.13 | – | – | – | – | – | – | – | – | – | – | –
